Experimental data as given in patent US9862708B2, “Pyrazolone compounds and uses thereof” (Tempest Therapeutics, Inc., priority 2014, dated 2018).
Read-outs that look alike come from different tables or passages of the source.

Assays:
Format in all cases: cell-based
PPAR gamma = target: T1, PPAR gamma (Homo sapiens, UniProt P37231); assay: PPAR γ reporter counterscreen (Indigo Biosciences kit); details: receptor agonist at ~EC80 for antagonist potency
T1 construct: host or cells: engineered reporter cells of the kit (analogous to the PPARα kit: non-human mammalian)
T1 sequence (P37231 1-505): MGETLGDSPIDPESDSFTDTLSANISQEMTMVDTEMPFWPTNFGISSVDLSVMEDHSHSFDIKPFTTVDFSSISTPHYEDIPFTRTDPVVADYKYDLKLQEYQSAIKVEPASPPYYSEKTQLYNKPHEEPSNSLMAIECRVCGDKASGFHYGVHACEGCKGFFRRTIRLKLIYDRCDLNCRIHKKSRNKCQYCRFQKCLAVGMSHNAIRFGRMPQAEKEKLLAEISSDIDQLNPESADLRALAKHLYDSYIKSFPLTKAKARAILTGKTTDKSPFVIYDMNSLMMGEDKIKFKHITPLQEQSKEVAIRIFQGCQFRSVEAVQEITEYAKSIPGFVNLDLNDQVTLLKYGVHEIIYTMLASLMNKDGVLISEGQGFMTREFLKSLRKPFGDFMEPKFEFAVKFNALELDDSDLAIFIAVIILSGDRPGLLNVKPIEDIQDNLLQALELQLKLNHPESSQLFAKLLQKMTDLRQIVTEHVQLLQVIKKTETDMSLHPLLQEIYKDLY
Procedure: (§1) To determine species selectivity, a Mouse PPARα Reporter Assay System was used (Indigo Biosciences, Cat. #M00111). Activity of test compounds to antagonize or agonize other isoforms of human PPAR, for example β/δ and γ, were assessed using the corresponding kits from Indigo Biosciences (Cat. #IB00121 and #IB00101, respectively). In addition to PPAR activity, compounds were also screened for activity against other nuclear hormone receptors including Estrogen Receptor β, Glucocorticoid Receptor and Thyroid Receptor β using commercially available kits (Indigo Biosciences, Cat. #IB00411, IB00201 and IB01101, respectively). Each assay system from Indigo Biosciences uses technology analogous to the human
(§2) PPARα kit, with the variance being that the cells used for each assay were engineered to over-express the receptor of interest. In addition, the appropriate receptor agonist (included with each kit) was used at ˜EC80 for assays in which antagonist potency was being assessed.

human PPARα = target: T2, human PPARα (Homo sapiens, UniProt Q07869); assay: Human PPARα Reporter Assay (luciferase, Indigo Biosciences)
T2 construct: host or cells: proprietary non-human mammalian cells
T2 sequence (Q07869 1-468): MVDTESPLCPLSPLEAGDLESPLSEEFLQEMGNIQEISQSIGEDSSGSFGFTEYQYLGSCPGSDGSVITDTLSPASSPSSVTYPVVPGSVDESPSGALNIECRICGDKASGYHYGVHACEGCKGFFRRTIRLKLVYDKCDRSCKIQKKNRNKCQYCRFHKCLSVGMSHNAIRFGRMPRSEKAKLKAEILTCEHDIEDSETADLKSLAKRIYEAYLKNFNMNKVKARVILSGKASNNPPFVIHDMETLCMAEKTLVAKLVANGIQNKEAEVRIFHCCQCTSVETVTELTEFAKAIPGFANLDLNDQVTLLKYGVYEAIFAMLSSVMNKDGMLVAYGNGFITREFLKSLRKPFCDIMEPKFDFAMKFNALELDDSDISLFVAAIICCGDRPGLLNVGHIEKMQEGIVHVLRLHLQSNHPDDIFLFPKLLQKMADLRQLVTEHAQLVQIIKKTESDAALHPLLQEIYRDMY
Procedure, shortened: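 Agonist or antagonist activity read as luciferase light from engineered reporter cells carrying human PPARα and a responsive reporter gene. Cells got compound immediately on dispensing, incubated overnight, then treatment media swapped for luciferase detection reagent.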

Thyroid Receptor β = target: T3, Thyroid Receptor β (Homo sapiens, UniProt P10828); assay: Thyroid Receptor β reporter counterscreen (Indigo Biosciences kit); details: receptor agonist at ~EC80 for antagonist potency
T3 construct: host or cells: engineered reporter cells of the kit
T3 sequence (P10828 1-461): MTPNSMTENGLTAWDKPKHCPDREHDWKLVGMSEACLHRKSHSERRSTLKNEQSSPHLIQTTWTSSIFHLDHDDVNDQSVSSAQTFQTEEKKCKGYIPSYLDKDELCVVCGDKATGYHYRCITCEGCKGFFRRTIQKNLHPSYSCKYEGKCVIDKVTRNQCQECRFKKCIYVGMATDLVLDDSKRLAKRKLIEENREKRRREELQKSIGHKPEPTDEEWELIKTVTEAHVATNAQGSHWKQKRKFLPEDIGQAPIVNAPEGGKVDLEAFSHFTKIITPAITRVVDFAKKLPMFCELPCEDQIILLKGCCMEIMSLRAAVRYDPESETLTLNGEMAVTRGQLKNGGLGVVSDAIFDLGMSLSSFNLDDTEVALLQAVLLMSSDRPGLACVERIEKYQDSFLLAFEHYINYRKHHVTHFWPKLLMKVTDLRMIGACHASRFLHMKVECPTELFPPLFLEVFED
Procedure: as §1, §2

Glucocorticoid Receptor = target: T4, Glucocorticoid Receptor (Homo sapiens, UniProt P04150); assay: Glucocorticoid Receptor reporter counterscreen (Indigo Biosciences kit); details: receptor agonist at ~EC80 for antagonist potency
T4 construct: host or cells: engineered reporter cells of the kit
T4 sequence (P04150 1-777): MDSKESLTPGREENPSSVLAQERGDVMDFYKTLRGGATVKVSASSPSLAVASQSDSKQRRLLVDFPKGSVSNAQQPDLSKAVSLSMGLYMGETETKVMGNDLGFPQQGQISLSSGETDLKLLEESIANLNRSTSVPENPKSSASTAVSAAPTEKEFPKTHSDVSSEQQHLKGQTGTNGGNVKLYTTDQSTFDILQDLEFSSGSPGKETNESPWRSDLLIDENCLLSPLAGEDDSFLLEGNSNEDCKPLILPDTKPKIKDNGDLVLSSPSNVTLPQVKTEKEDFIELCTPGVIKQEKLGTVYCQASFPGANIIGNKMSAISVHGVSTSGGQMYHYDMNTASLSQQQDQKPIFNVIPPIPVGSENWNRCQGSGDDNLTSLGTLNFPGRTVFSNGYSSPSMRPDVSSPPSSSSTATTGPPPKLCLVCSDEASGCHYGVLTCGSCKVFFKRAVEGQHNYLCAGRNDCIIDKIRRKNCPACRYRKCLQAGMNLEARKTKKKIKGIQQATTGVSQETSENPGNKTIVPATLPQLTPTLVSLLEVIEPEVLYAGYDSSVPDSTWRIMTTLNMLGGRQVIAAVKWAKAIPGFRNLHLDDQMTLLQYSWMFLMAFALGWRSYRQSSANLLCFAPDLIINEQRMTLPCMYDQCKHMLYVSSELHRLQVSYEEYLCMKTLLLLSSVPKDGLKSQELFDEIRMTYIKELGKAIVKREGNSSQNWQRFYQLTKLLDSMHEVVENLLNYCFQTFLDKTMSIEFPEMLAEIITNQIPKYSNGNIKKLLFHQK
Procedure: as §1, §2

Estrogen Receptor β = target: T5, Estrogen Receptor β (Homo sapiens, UniProt Q92731); assay: Estrogen Receptor β reporter counterscreen (Indigo Biosciences kit); details: receptor agonist at ~EC80 for antagonist potency
T5 construct: host or cells: engineered reporter cells of the kit
T5 sequence (Q92731 whole entry): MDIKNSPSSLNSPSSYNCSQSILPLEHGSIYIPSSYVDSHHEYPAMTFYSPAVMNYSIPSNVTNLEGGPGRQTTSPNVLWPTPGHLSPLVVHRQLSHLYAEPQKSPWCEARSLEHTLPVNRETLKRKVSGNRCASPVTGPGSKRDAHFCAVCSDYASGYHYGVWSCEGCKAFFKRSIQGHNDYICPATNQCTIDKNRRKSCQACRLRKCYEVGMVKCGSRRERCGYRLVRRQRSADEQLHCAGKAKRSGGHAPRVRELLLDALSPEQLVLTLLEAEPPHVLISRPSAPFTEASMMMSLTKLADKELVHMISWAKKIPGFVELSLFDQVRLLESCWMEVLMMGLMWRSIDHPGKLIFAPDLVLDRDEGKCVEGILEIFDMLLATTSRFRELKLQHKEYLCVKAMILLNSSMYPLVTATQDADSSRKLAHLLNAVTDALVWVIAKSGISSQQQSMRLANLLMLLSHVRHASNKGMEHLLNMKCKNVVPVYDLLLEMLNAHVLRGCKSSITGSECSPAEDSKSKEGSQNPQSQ
Procedure: as §1, §2

PPAR beta/delta = target: T6, PPAR beta/delta (Homo sapiens, UniProt Q03181); assay: PPAR β/δ reporter counterscreen (Indigo Biosciences kit); details: receptor agonist at ~EC80 for antagonist potency
T6 construct: host or cells: engineered reporter cells of the kit (analogous to the PPARα kit: non-human mammalian)
T6 sequence (Q03181 1-441): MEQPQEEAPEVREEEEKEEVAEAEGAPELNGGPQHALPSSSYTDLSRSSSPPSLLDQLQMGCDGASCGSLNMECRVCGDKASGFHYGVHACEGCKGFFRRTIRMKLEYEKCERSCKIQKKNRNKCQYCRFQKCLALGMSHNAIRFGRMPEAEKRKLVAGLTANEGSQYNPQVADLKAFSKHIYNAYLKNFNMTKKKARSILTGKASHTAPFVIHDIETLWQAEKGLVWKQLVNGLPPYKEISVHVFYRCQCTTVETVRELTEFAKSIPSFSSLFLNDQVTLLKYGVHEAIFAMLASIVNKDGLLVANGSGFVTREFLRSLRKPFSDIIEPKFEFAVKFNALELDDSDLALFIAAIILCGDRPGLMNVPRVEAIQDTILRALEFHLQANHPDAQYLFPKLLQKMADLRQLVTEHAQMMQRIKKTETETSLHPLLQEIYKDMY
Procedure: as §1, §2

Q: Which results are given for `CC1(C)C(=O)N(c2ccc(C(F)(F)F)cc2)N=C1CCCc1ccc(OC2(C(=O)O)CCC2)cc1` [Example 50, 1-(4-(3-(4,4-dimethyl-5-oxo-1-(4-(trifluoromethyl)phenyl)-4,5-dihydro-1H-pyrazol-3-yl)propyl)phenoxy)cyclobutanecarboxylic acid]?
A: IC50 (PPAR gamma): 56 µM; IC50 (human PPARα; Target Selectivity - Counterscreen table, read-out: PPAR alpha IC50): 0.0024 µM; IC50 (human PPARα; antagonism, luciferase reporter cells, overnight incubation, read-out: PPARα IC50): 0.0024 µM; IC50 (Thyroid Receptor β): 61 µM; IC50 (Glucocorticoid Receptor): 36 µM; IC50 (Estrogen Receptor β): 36 µM; IC50 (PPAR beta/delta): 22 µM
